“Also recorded” adds a separate entry of the source.
Tests used:
Format in all cases: physicochemical
[1] = Thermal stress experiments (Forms B, D, E, and F) in vacuum oven
Description: Thermal Stress Experiments (Forms B, D, E, and F)
Solids were stressed under different temperature (40° C. or 80° C.) in a vacuum oven for a measured time period.

[2] = Solid-state stability under storage conditions (XRPD)
Description: Solid-State Stability: Approximately 50 mg of Form A or Forms C+D were weighed to individual 8 mL vials and placed uncapped in the following storage conditions: 40° C. under vacuum, 80° C. under vacuum, desiccant, 25° C./60% RH and 40° C./75% RH. […] (Table 21). To assess the stability of Form A, the solid form was stored at different environmental conditions as described herein. Approximately 50 mg of Form A was weighed to 8 mL vials and placed uncapped in the following storage conditions: 40° C. under vacuum, 80° C. under vacuum, desiccant, 25° C./60% RH and 40° C./75% RH. After 24 hours and seven days of equilibration the solids were analyzed by XRPD. (See Table 21).

[3] = Slurry experiments (form conversion by XRPD)
Description: Slurry Experiments: Approximately 20-50 mg of select crystalline forms were weighed to individual 8 mL vials equipped with a magnetic stir bar. Either THF, water, EtOH, (80:20) EtOH:Water or IPA was added to obtain a free flowing slurry. After 3, 5, 7 and 11 days of equilibration at 50° C. or ambient temperature, solid from each slurry was recovered by centrifuge filtration through 0.45 μm nylon filters. The isolated solids were analyzed by XRPD to check for form conversion. […] (Table 22).

[4] = Gravimetric moisture sorption; conditions: for water adsorbed: 25° C.; for XRPD form of the dried solid following moisture sorption analysis: dried at 60° C./0% RH after the experiment; for stability upon desorption (loss of water): humidity reduced below 15%
Description: Gravimetric Moisture Sorption: Gravimetric moisture sorption experiments were carried out on selected materials by first drying the sample at 40% RH and 25° C. until an equilibrium weight was reached or for a maximum of four hours. The sample was then subjected to an isothermal (25° C.) adsorption scan from 40 to 90% RH in steps of 10%. The sample was allowed to equilibrate to an asymptotic weight at each point for a maximum of four hours. Following adsorption, a desorption scan from 85 to 0% RH (at 25° C.) was run in steps of −10% again allowing a maximum of four hours for equilibration to an asymptotic weight. An adsorption scan was then performed from 0% RH to 40% RH in steps of +10% RH. The sample was then dried for 1-2 hours at 60° C. and the resulting solid analyzed by XRPD.

[5] = Additional experiments to isolate OSI-906 solid forms (desiccant storage, exposure to lab humidity)
Description: Form C was confirmed to be a monohydrate of OSI-906 by gravimetric moisture sorption analysis. The solid form adsorbed approximately 4.2 wt % water at 30% RH which is consistent with the theoretical water content (4.1 wt %) of a monohydrate of OSI-906 (See FIG. 47). Upon desorption, hysteresis was observed between 25% RH and 5% RH. […] Based on these findings, an additional experiment was conducted in an effort to isolate this new crystalline form. An XRPD substrate containing Form C was placed in a desiccator at room temperature. After overnight storage, the slide was analyzed immediately by XRPD upon removal from the environment and brief exposure (<10 min) to the lab humidity (40-50% RH).

[6] = DSC isothermal hold at 105° C. followed by XRPD; conditions: held at 105° C. for five minutes
Description: Differential Scanning Calorimetry Analysis:
Differential scanning calorimetry (DSC) analyses were carried out on the samples “as is”. Samples were weighed in an aluminum pan, covered with a pierced lid, and then crimped. Analysis conditions were 30-105, 30-300, 30-350° C. at 10° C./min. In addition, isothermal holds were performed for a duration of five minutes at 105° C. and 200° C.
(See FIG. 49). In an effort to elucidate the additional thermal events, additional DSC experiments were conducted. Form C was held at 105° C. for five minutes, cooled to room temperature and then reheated to the same temperature. […] The isothermal hold experiment was repeated and the sample then exposed to the lab environment (˜40-50% RH) overnight. […] These observations are consistent with the results previously presented following storage of Form C under desiccant conditions.

[7] = (80:20) EtOH:Water, prolonged equilibration at ambient and elevated temperature
[8] = water, prolonged equilibration at ambient and elevated temperature

Row | Compound | XRPD Result after thermal stress ([1]; 40° C., 3 d) | form stability in slurry [3, 7] | form stability in slurry ([3]; EtOH, ambient temperature) | form stability in slurry ([3]; EtOH, elevated temperature) | form stability in slurry ([3]; IPA) | form stability in slurry ([3]; THF) | form stability in slurry [3, 8] | water adsorbed ([4]; 60% RH) | XRPD form of the dried solid following moisture sorption analysis [4] | stability upon desorption (loss of water) [4] | further results
1 | CC1(O)CC(c2nc(-c3ccc4ccc(-c5ccccc5)nc4c3)c3c(N)nccn23)C1 (stereo not drawn) [Form F, cis-3-[8-amino-1-(2-phenyl-quinolin-7-yl)-imidazo[1,5-a]pyrazin-3-yl]-1-methylcyclobutanol] | Form C |  |  |  |  |  |  |  |  |  | XRPD Result after thermal stress ([1]; 80° C., overnight): Form C
2 | CC1(O)CC(c2nc(-c3ccc4ccc(-c5ccccc5)nc4c3)c3c(N)nccn23)C1 (stereo not drawn) [Form D, cis-3-[8-amino-1-(2-phenyl-quinolin-7-yl)-imidazo[1,5-a]pyrazin-3-yl]-1-methylcyclobutanol] | Form C | conversion to Form C | Form C | converting to either Form A or E | conversion to Form A | conversion to Form A | stable | approximately 3.9 wt % | mixture of Forms C and D | not stable | solid-state stability (summary in words) ([2]; one and seven days at 25° C./60% RH, 40° C./75% RH and under desiccant conditions): exhibited stability; solid-state stability (summary in words) ([2]; one and seven days at elevated temperature drying conditions (40° C. or 80° C. under vacuum)): conversion to Form C
3 | CC1(O)CC(c2nc(-c3ccc4ccc(-c5ccccc5)nc4c3)c3c(N)nccn23)C1 (stereo not drawn) [Form A, cis-3-[8-amino-1-(2-phenyl-quinolin-7-yl)-imidazo[1,5-a]pyrazin-3-yl]-1-methylcyclobutanol] |  |  |  |  |  |  |  | 0.2 wt % | consistent with the initial form |  | hygroscopicity by gravimetric moisture sorption analysis [4]: non-hygroscopic; water adsorbed ([4]; 90% RH): 0.3 wt %
4 | CC1(O)CC(c2nc(-c3ccc4ccc(-c5ccccc5)nc4c3)c3c(N)nccn23)C1 (stereo not drawn) [Form I, cis-3-[8-amino-1-(2-phenyl-quinolin-7-yl)-imidazo[1,5-a]pyrazin-3-yl]-1-methylcyclobutanol] |  |  |  |  |  |  |  |  |  |  | XRPD form after exposure to lab humidity ([5]; 1 hour, lab humidity 40-50% RH): conversion to Form C
5 | CC1(O)CC(c2nc(-c3ccc4ccc(-c5ccccc5)nc4c3)c3c(N)nccn23)C1 (stereo not drawn) [Form C, cis-3-[8-amino-1-(2-phenyl-quinolin-7-yl)-imidazo[1,5-a]pyrazin-3-yl]-1-methylcyclobutanol] |  | stable | exhibiting stability | conversion to Forms A or E | conversion to Form A | conversion to Form A | stable |  | mixture of Form C and an unidentified crystalline form; also recorded: mixture of Forms C+I | not stable | XRPD form after slurry ([3]; THF, room temperature, 11 day): Form A; XRPD form after desiccant storage ([5]; overnight in a desiccator at room temperature): Form I; XRPD form after DSC isothermal hold [6]: indicative of Form C; water adsorbed ([4]; 30% RH): approximately 4.2 wt %

Source: patent US20130158264A1, “Polymorphs of OSI-906” (priority 2010, published 2013)
